# Measured values taken from US20030139331A1, “Treatment of cancer by reduction of intracellular energy and pyrimidines” (priority 2000, published 2003).
# Entries after “also recorded” stand apart in the source; their conditions may differ.
# Assays:
# [1] = tested on: 1st passage tumor transplants of CD8F1 spontaneous breast tumors; assay: Effect of MMPR + 6-AN + PALA on tumor ATP pools in CD8F1 mice; assay type: in vivo; design: tumor ATP levels 48 hours after treatment, % of normal (saline-treated control tumors) / 6 HR % Saline Control / 24 HR % Saline Control / 48 HR % Saline Control / 72HR % Saline Control / 6 HW % Saline Control: concentration or dose not given beside the values; conditions: for tumor ATP levels 48 hours after treatment, % of normal (saline-treated control tumors): 48 hours after administration; for tumor ATP level, % of normal: murine breast tumors in vivo, time not stated in the sentence; for 6 HW % Saline Control: 6 hr; for 6 HR % Saline Control: tumor ATP 6 hr after i.p. injection
# [2] = tested on: first passage CD8F1 advanced spontaneous breast tumors; assay: in vivo; conditions: for effect on tumor growth / anticancer activity (in words): advanced CD8F1 breast tumors in mice; for Regressions/Survivors: partial tumor regressions; for partial tumor regression (P.R.) rate: three pooled published experiments, MMPR, 6-AN, PALA alone and combined, P.R. = 50% or more tumor shrinkage, three courses, 1-week interval
# From the text: (§1) Table 1 evaluates Saline-treated controls (Group 1), 6-AN (Group 2) and DDP (Group 3) as single agents, and in combination (Group 4), against 1st generation subcutaneous solid tumor transplants of advanced CD8F, spontaneous breast tumors. In the same experiment (i.e., same tumor transplants), is a group adding 6-AN to PALA and MMPR (MAP, Group 5), as well as a group with MAP administered prior to DDP (Group 6).
# (§2) Each experiment is from a different brei (i.e., each from a different group of 3-4 spontaneous tumors) and, therefore, each transplant group contained a different number of chemotherapeutically sensitive and/or resistant tumor cells.
# [3] = tested on: murine breast cancers, colon tumors and leukemia, and human breast cancer xenografts; assay: MAP plus anticancer agents in advanced tumor-bearing mice with a variety of tumor types; assay type: in vivo; conditions: MAP co-administered with the named anticancer agent
# Procedure: Summary of Preclinical Therapeutic Results with MAP+Cancer Chemotherapy—MAP+each of nine mechanistically-different apoptosis-inducing anticancer agents was administered to advanced tumor-bearing mice with a variety of tumor types (murine breast cancers, colon tumors and leukemia, and human breast cancer xenografts).
# in vivo = conditions: CD8F1, mouse, in vivo
# From the text: as §1, §2
# [4] = tested on: spontaneous, autochthonous CD8F1 breast tumors; assay: Therapy of mice bearing spontaneous, autochthonous CD8F1 breast tumors; assay type: in vivo
# From the text: Anticancer Effect of MAP Alone in Spontaneous Murine Breast Tumors (Ref. 39)—Table 3 records that MAP produced a partial tumor regression rate of 38% in mice bearing large spontaneous, autochthonous breast tumors. There were 24 partial tumor regressions in 64 surviving mice with acceptable toxicity (4% mortality, 3 deaths in 67 treated mice). Spontaneous regression of these spontaneous breast cancers has never been observed.
# [5] = tested on: MDA-MB 468 human breast cancer xenografts; assay: Taxotere with MAP or MAPAL in MDA-MB-468 human breast cancer xenografts; assay type: in vivo; conditions: pyruvate for 1 day on the 5th day after each ATP-depleting treatment
# [6] = tested on: human soft tissue sarcoma cell lines; assay: Sensitivity of human soft tissue sarcoma cell lines to L-alanosine by MTAP status; assay type: cell-based; conditions: cells lacking MTAP activity
# From the text: An examination of MTAP expression in ten human soft tissue sarcoma cell lines found MTAP not detectable in three of the ten cell lines. These three cell lines were greater than 10-fold more sensitive to L-alanosine than the cell lines containing MTAP. […] In vivo studies of L-alanosine+MMPR, as well as the addition of 6-AN, are being evaluated (82).
# An examination of MTAP expression in ten human soft tissue sarcoma cell lines found MTAP not detectable in four of the ten cell lines. These four cell lines were sensitive to L-alanosine.
# mouse lymphoma cells = conditions: in vitro; cited from earlier work
# tumor ATP levels = conditions: cited from earlier work
# [7] = tested on: patients with disseminated cancer; conditions: cited from earlier work
# [8] = tested on: MDA-MB 468 human breast cancer xenografts; assay: Taxotere with MAP or MAPAL in MDA-MB-468 human breast cancer xenografts; assay type: in vivo; conditions: for PR (partial tumor regression): CR included in PR rate; for (CR) complete tumor regression: included in PR rate; for % Partial Regressions: tumors averaged 100 mg at initiation, label subscript = mg/kg
# From the text: Table 2 presents results one month after completing a q 2 week×3 schedule with Taxotere (TXT40 or TXT20; subscript=mg/kg), initiated in mice (10/grp) with subcutaneous advanced (100+mg) MDA-MB 468 breast cancer xenografts, are as follows: […]
# [9] = Exp.3069F, tumors averaged 80 mg at start, three i.p. courses at 10-11 day intervals, after third course
# [10] = seventh series copy of Table 1, 24 hr
# [11] = seventh series copy of Table 1, 48 hr
# [12] = seventh series copy of Table 1, 72 hr
# [13] = tumor ATP 24 hr after i.p. injection, % of saline control
# [14] = tumor ATP 48 hr after i.p. injection, % of saline control
# [15] = tumor ATP 72 hr after i.p. injection, % of saline control
# [16] = 69 days after initiating therapy, listed as TXT20
# [17] = 69 days after initiating therapy, listed as Taxotere40
smiles,measurement,setting,value
"O=C(O)C[C@H](NC(=O)CP(=O)(O)O)C(=O)O [PALA, N-(phosphonacetyl)-L-aspartic acid]",effect on tumor ATP levels (in words),[1]; low dose PALA,had no effect on ATP levels; also recorded: does not effect ATP depletion; also recorded: devoid of an ATP depleting effect; also recorded: does not affect ATP depletion; also recorded: neither reduces tumor ATP levels nor inhibits tumor growth
same,effect on tumor growth / anticancer activity (in words),[2],not antitumor active; also recorded: does not have anticancer activity
COc1cc([C@@H]2c3cc4c(cc3[C@@H](O[C@@H]3O[C@@H]5CO[C@@H](C)O[C@H]5[C@H](O)[C@H]3O)[C@H]3COC(=O)[C@H]23)OCO4)cc(OC)c1O [etoposide],enhancement of anticancer agent activity by co-administered MAP (in words),[3],significantly enhance response rates
"N[C@@H](Cc1ccc(N(CCCl)CCCl)cc1)C(=O)O [PAM, phenylalanine mustard]",Partial Regressions (%),"[2]; Table 6, MAP ± PAM",did not produce tumor regressions
same,enhancement of anticancer agent activity by co-administered MAP (in words),[3],significantly enhance response rates
CO[C@@]12[C@H](COC(N)=O)C3=C(C(=O)C(C)=C(N)C3=O)N1C[C@@H]1N[C@@H]12 [mitomycin C],enhancement of anticancer agent activity by co-administered MAP (in words),[3],significantly enhance response rates
COc1cccc2c1C(=O)c1c(O)c3c(c(O)c1C2=O)C[C@@](O)(C(=O)CO)C[C@@H]3O[C@H]1C[C@H](N)[C@H](O)[C@H](C)O1 [doxorubicin],enhancement of anticancer agent activity by co-administered MAP (in words),[3],significantly enhance response rates
"O=c1[nH]cc(F)c(=O)[nH]1 [FUra, 5-fluorouracil]",MTD,in vivo,100 mg/kg
same,"regressions of spontaneous autochthonous breast tumors, FUra alone at 75 mg/kg",[4]; 75 mg/kg,less than 5%
same,"PR rate, FUra alone at its MTD of 100 mg/kg",[4]; 100 mg/kg,≤ 20%
same,enhancement of anticancer agent activity by co-administered MAP (in words),[3],significantly enhance response rates
"N.N.[Cl][Pt][Cl] [DDP, cisplatin]",% Weight Change,"[2]; Exp.3069F, after third course",−18%
same,Dead/Total,"[2]; Exp.3069F, after third course",1/10
same,Regressions/Survivors,"[2]; Exp.3069F, after third course",0/9
same,Av. Tumor W't,[2]; [9],850 mg
same,effect on tumor growth / anticancer activity (in words),[2],limited to inhibition of tumor growth
same,effect on tumor growth / anticancer activity (in words),[2]; listed as cisplatin,significantly inhibited tumor growth
same,Regressions/Survivors (%),"[2]; pooled five experiments, MAP ± DDP, one week after third course","produced no partial (i.e., greater than 50% shrinkage of tumors), or complete response"
same,MTD (maximum tolerated dose) of the agent alone,"[2]; single agent, 10-11 day schedule, tumor-bearing CD8F1 mice",7 mg/kg
same,enhancement of anticancer agent activity by co-administered MAP (in words),[3],significantly enhance response rates
"CC(=O)C(=O)O [Pyruvate, pyruvate]",effect of pyruvate administration on treatment-induced weight loss / mortality,[5],diminishes the degree of weight loss
same,effect of pyruvate administration on treatment-induced weight loss / mortality,[5]; listed as pyruvate,"Unacceptable mortality (e.g., 30%) is prevented"
"CSc1ncnc2c1ncn2[C@@H]1O[C@H](CO)[C@@H](O)[C@H]1O [MMPR, 6-methylmercaptopurine riboside]","tumor ATP levels 48 hours after treatment, % of normal (saline-treated control tumors)",[1],34%
same,"tumor ATP level, % of normal",[1],34%
same,6 HW % Saline Control,[1]; seventh series copy of Table 1,47%
same,24 HR % Saline Control,[1]; [10],47%
same,48 HR % Saline Control,[1]; [11],34%
same,72HR % Saline Control,[1]; [12],127%
same,6 HR % Saline Control,[1]; % of saline control,47%
same,24 HR % Saline Control,[1]; [13],47%
same,48 HR % Saline Control,[1]; [14],34%
same,72HR % Saline Control,[1]; [15],127%
same,effect on tumor growth / anticancer activity (in words),[2],tumor growth was inhibited
same,partial tumor regression (P.R.) rate,[2],no partial regressions
same,effect of adding MMPR to L-alanosine (in words),[6],further enhanced the sensitivity of the cells lacking MTAP activity to L-alanosine
same,"cell growth, % of control",mouse lymphoma cells,25%
same,"intracellular tumor cell ATP pool, % of normal (control)",mouse lymphoma cells,49%
"NC(=O)c1ccc(N)nc1 [6-AN, 6-aminonicotinamide]","tumor ATP levels 48 hours after treatment, % of normal (saline-treated control tumors)",[1],69%
same,"tumor ATP level, % of normal",[1],75%
same,"tumor ATP level, % of normal",[1]; listed as 6-Aminonicotinamide,69%
same,6 HW % Saline Control,[1]; seventh series copy of Table 1,77%
same,24 HR % Saline Control,[1]; [10],75%
same,48 HR % Saline Control,[1]; [11],69%
same,72HR % Saline Control,[1]; [12],169%
same,6 HR % Saline Control,[1]; % of saline control,77%
same,24 HR % Saline Control,[1]; [13],75%
same,48 HR % Saline Control,[1]; [14],69%
same,72HR % Saline Control,[1]; [15],169%
same,% Weight Change,"[2]; Exp.3069F, after third course",+6%
same,Dead/Total,"[2]; Exp.3069F, after third course",3/10
same,Regressions/Survivors,"[2]; Exp.3069F, after third course",0/7
same,Av. Tumor W't (mg),[2]; [9],"1,765 mg"
same,effect on tumor growth / anticancer activity (in words),[2],tumor growth was inhibited
same,partial tumor regression (P.R.) rate,[2],no partial regressions
same,toxicity of in vivo schedules,"tumor ATP levels; 6-AN 10 mg/kg q 3 hours x 3 on days 1,3,5 or continuous infusion",too toxic
same,"tumor ATP levels, % of normal","tumor ATP levels; single dose of 6-AN alone at 10 mg/kg, different tumor model",75-80%
same,dose of 6-AN determined to be safe in early clinical trials,[7]; for up to 28 consecutive days of treatment,0.2 mg/kg/day
same,clinical forms of 6-AN toxicity,"[7]; three Phase I trials, daily administration","at low dose a mixed B complex vitamin deficiency, and at high dose CNS toxicity; also recorded: a low dose mixed B complex vitamin deficiency, and a high dose-dependent CNS toxicity"
"CC(=O)O[C@H]1C(=O)[C@@]2(C)[C@H]([C@H](OC(=O)c3ccccc3)[C@]3(O)C[C@H](OC(=O)[C@H](O)[C@@H](NC(=O)c4ccccc4)c4ccccc4)C(C)=C1C3(C)C)[C@]1(OC(C)=O)CO[C@@H]1C[C@@H]2O [Taxol, paclitaxel]",MTD,in vivo,80 mg/kg
same,PR/survivors (%),"[2]; Table 5, MAP ± taxol",no tumor regressions
same,effect on tumor growth / anticancer activity (in words),[2],statistically significant inhibition of tumor growth
same,enhancement of anticancer agent activity by co-administered MAP (in words),[3],significantly enhance response rates
"CC(=O)O[C@@]12CO[C@@H]1C[C@H](O)[C@@]1(C)C(=O)[C@H](O)C3=C(C)[C@@H](OC(=O)[C@H](O)[C@@H](NC(=O)OC(C)(C)C)c4ccccc4)C[C@@](O)([C@@H](OC(=O)c4ccccc4)[C@H]21)C3(C)C [Taxotere, taxotere]",PR (partial tumor regression),[8]; [16],0%
same,PR (partial tumor regression),[8]; [17],60%
same,Mortality,"[8]; 69 days after initiating therapy, every 2 weeks x 3, 10-11 mice per group",0%
same,(CR) complete tumor regression,[8]; [16],(0%)
same,(CR) complete tumor regression,[8]; [17],(10%)
same,NR (no tumor regression),[8]; [16],100%
same,NR (no tumor regression),[8]; [17],40%
same,tumor regressions with the single agent,[8]; MDA-MB-468 tumor model described as very sensitive,90-100%
same,"tumor regrowth beginning, days after the third and last injection","[8]; full (MTD) dose Taxotere, Group 1",41 days
same,% Tumors Progressing,"[8]; treatment q 2 weeks x 3, progressing tumors larger than P.R. tumors and growing",0%
same,% Partial Regressions,[8]; treatment q 2 weeks x 3,100%
same,% Partial Regressions,"[8]; treatment q 2 weeks x 3, listed as Taxotere40",100%
same,enhancement of anticancer agent activity by co-administered MAP (in words),[3],significantly enhance response rates
O=P1(N(CCCl)CCCl)NCCCO1 (stereo not drawn) [cyclophosphamide],enhancement of anticancer agent activity by co-administered MAP (in words),[3],significantly enhance response rates
N[C@@H](CN(O)N=O)C(=O)O [L-alanosine],"cell growth, % of control",mouse lymphoma cells,59%
same,"intracellular tumor cell ATP pool, % of normal (control)",mouse lymphoma cells,63%
